Read-outs that look alike come from different tables or passages of the source.
Tests used:
[1] = Stability test of crystal form I under influencing factors (60° C., RH 92.5%, RH 75%, illumination); format: physicochemical
Text: Samples were taken on days 0, 4 and 10, and investigated for changes in properties and purity.

[2] = Stability test of amorphous form and crystal form I at 105° C. and 60° C.; format: physicochemical
Description: The “destructive impurity” described herein refers to an additional peak in a liquid chromatogram of a sample in a stability test compared with the liquid chromatogram of the sample on day 0.
The bottles were let stand at 105° C. (samples were taken on days 3, 5 and 10) and at 60° C. (samples were taken on days 10, 20 and 30). The taken samples were investigated for changes in appearance, related substances and form.
Proper amounts of amorphous form samples of the compound (I) were placed into weighing bottles. The bottles were let stand at 105° C. (samples were taken on days 3, 5 and 10) and at 60° C. (samples were taken on days 10, 20 and 30). The taken samples were investigated for changes in appearance, related substances.

SNU-16 cells = assay: Cell viability assay (Cell titer-Glo, 72 h); format: cell-based; conditions: for IC50: SNU-16 gastric cancer cells with FGFR abnormalities, 72 h, Cell titer-Glo, read-out: Inhibitory activity (nM) on SNU-16 cells (IC50)
Description: SNU-16 is a gastric cancer cell with FGFR abnormalities.
Instrument: Espire multi-functional microplate reader
SNU-16 cells were seeded in a 96-well plate for adherent culture overnight, and then compounds at different concentrations (12 dose groups, serial 3-fold dilution with DMSO) were added to give final concentrations of 0.17-30000 nM, wherein the final DMSO content was 5%. Negative control wells contained a 5% DMSO medium. The plate was incubated at 37° C., 5% CO2 and 95% humidity for 72 h for later test. 30 μL of Cell titer-Glo reagent was added to each well, and after the plate was incubated at room temperature for 30 min, the final data were read by Espire.

[3] = Illumination (≥4500±500 Lux), Day 4
[4] = Illumination (≥4500±500 Lux), Day 10
[5] = 60° C., Day 10, additional HPLC peaks vs day 0

**Q.** What does the source list for `C=CC(=O)N1C[C@@H](Nc2ncc3cc(-c4c(Cl)c(OC)cc(OC)c4Cl)ccc3n2)C[C@H]1CO` [Crystal form I, 1-((2S,4S)-4-((6-(2,6-dichloro-3,5-dimethoxyphenyl)quinazolin-2-yl)amino)-2-(hydroxymethyl)pyrrolidin-1-yl)prop-2-en-1-one]?
**A.** Appearance ([1]; 60° C., Day 4, open bottle): Off-white powder; Purity % ([1]; 60° C., Day 4, open bottle): 99.6%; Appearance ([1]; 60° C., Day 10, open bottle): Off-white powder; Purity % ([1]; 60° C., Day 10, open bottle): 99.6%; Appearance ([1]; 75% RH, Day 4, open bottle): Off-white powder; Purity % ([1]; 75% RH, Day 4, open bottle): 99.6%; Appearance ([1]; 75% RH, Day 10, open bottle): Off-white powder; Purity % ([1]; 75% RH, Day 10, open bottle): 99.6%; Appearance ([1]; 92.5% RH, Day 4, open bottle): Off-white powder; Purity % ([1]; 92.5% RH, Day 4, open bottle): 99.6%; Appearance ([1]; 92.5% RH, Day 10, open bottle): Off-white powder; Purity % ([1]; 92.5% RH, Day 10, open bottle): 99.6%; Appearance ([1]; Day 0): Off-white powder; Purity % ([1]; Day 0): 99.6%; Appearance [1, 3]: Off-white powder; Purity % [1, 3]: 99.6%; Appearance [1, 4]: Pale yellow powder; Purity % [1, 4]: 99.5%; Change of appearance and purity ([1]; after 10 days in various influencing factor conditions): did not change significantly; Appearance ([2]; 60° C., Day 10): Off-white powder; Form (XRPD) ([2]; 60° C., Day 10): Crystal form I; Related substances (%) ([2]; 60° C., Day 10): 0.64%; Destructive impurity (%) [2, 5]: Undetectable; Appearance ([2]; 60° C., Day 20): Off-white powder; Form (XRPD) ([2]; 60° C., Day 20): Crystal form I; Related substances (%) ([2]; 60° C., Day 20): 0.64%; Destructive impurity (%) ([2]; 60° C., Day 20, additional HPLC peaks vs day 0): Undetectable; Appearance ([2]; 60° C., Day 30): Off-white powder; Form (XRPD) ([2]; 60° C., Day 30): Crystal form I; Related substances (%) ([2]; 60° C., Day 30): 0.68%; Destructive impurity (%) ([2]; 60° C., Day 30, additional HPLC peaks vs day 0): Undetectable; Appearance ([2]; 105° C., Day 3): Off-white powder; Form (XRPD) ([2]; 105° C., Day 3): Crystal form I; Related substances (%) ([2]; 105° C., Day 3): 0.62%; Destructive impurity (%) ([2]; 105° C., Day 3, additional HPLC peaks vs day 0): Undetectable; Appearance ([2]; 105° C., Day 5): Off-white powder; Form (XRPD) ([2]; 105° C., Day 5): Crystal form I; Related substances (%) ([2]; 105° C., Day 5): 0.60%; Destructive impurity (%) ([2]; 105° C., Day 5, additional HPLC peaks vs day 0): Undetectable; Appearance ([2]; 105° C., Day 10): Off-white powder; Form (XRPD) ([2]; 105° C., Day 10): Crystal form I; Related substances (%) ([2]; 105° C., Day 10): 0.63%; Destructive impurity (%) ([2]; 105° C., Day 10, additional HPLC peaks vs day 0): Undetectable; Appearance ([2]; Day 0): Off-white powder; Destructive impurity (%) ([2]; Day 0): None; Form (XRPD) ([2]; Day 0): Crystal form I; Related substances (%) ([2]; Day 0): 0.64%; Change of appearance, related substances and form ([2]; after storage at 105° C. for 10 days and at 60° C. for 30 days): did not change significantly; Inhibitory activity on SNU-16 cells (in words) (SNU-16 cells; SNU-16 cells with FGFR abnormalities): good inhibitory activity; IC50 (SNU-16 cells): 9.5 nM

**Q.** For `C=CC(=O)N1C[C@@H](Nc2ncc3cc(-c4c(Cl)c(OC)cc(OC)c4Cl)ccc3n2)C[C@H]1CO` [Amorphous form, 1-((2S,4S)-4-((6-(2,6-dichloro-3,5-dimethoxyphenyl)quinazolin-2-yl)amino)-2-(hydroxymethyl)pyrrolidin-1-yl)prop-2-en-1-one], which Appearance ([2]; 60° C., Day 10) is on record?
**A.** Pale yellow powder

**Q.** What about the “Related substances (%)” value ([2]; 60° C., Day 10) of the same molecule?
**A.** 0.73%

**Q.** And the “Destructive impurity (%)” value [2, 5]?
**A.** 0.06%

**Q.** And the Appearance ([2]; 60° C., Day 20)?
**A.** Pale yellow powder

**Q.** And the “Related substances (%)” value ([2]; 60° C., Day 20)?
**A.** 0.72%

**Q.** What about the Appearance ([2]; 60° C., Day 30) of the same molecule?
**A.** Pale yellow powder

**Q.** What about the “Related substances (%)” value ([2]; 60° C., Day 30) of the same molecule?
**A.** 0.75%

**Q.** What about the Appearance ([2]; 105° C., Day 3) of the same molecule?
**A.** Pale yellow powder

**Q.** And the “Related substances (%)” value ([2]; 105° C., Day 3)?
**A.** 1.3%

**Q.** What about the Appearance ([2]; 105° C., Day 5) of the same molecule?
**A.** Pale yellow powder

**Q.** What about the “Related substances (%)” value ([2]; 105° C., Day 5) of the same molecule?
**A.** 1.6%

**Q.** And the Appearance ([2]; 105° C., Day 10)?
**A.** Pale yellow powder

**Q.** And the “Related substances (%)” value ([2]; 105° C., Day 10)?
**A.** 2.5%

**Q.** What about the Appearance ([2]; Day 0) of the same molecule?
**A.** Pale yellow powder

**Q.** What about the “Destructive impurity (%)” value ([2]; Day 0) of the same molecule?
**A.** None

**Q.** What about the “Related substances (%)” value ([2]; Day 0) of the same molecule?
**A.** 0.62%

**Q.** What about the “Number of destructive impurities detected (HPLC)” value ([2]; stored at 60° C. for 30 days) of the same molecule?
**A.** 2

**Q.** And the “Number of destructive impurities detected (HPLC)” value ([2]; stored at 105° C. for 10 days)?
**A.** 7

**Q.** What about the IC50 (SNU-16 cells; Homo sapiens, SNU-16, 72 h) of the same molecule?
**A.** 11 nM
